Consider three compounds from US20260102390A1, “4-(2-(4-((2,4-DIOXOTHIAZOLIDIN-5-YL)METHYL)PHENOXY) DERIVATIVES AS PPARgamma AGONISTS AND AUTOTAXIN INHIBITORS FOR USE IN THE TREATMENT OF FIBROSIS” (Uni-Pharma Kleon Tsetis Pharmaceutical Laboratories S.A., priority 2022, published 2026).

SMILES strings stand for the structures. Entries after “also recorded” stand apart in the source; their conditions may differ.

Data set [1] in a line: In vitro metabolism assay in liver microsomes. It counts as in vitro ADME. The procedure:
The in vitro metabolism assay was performed in liver microsomes. […] This half-live is higher than the ones of known drugs such as imipramine and others, therefore, it seems that A-1 is not quickly cleared from the circulation and, thus, remain available in the circulation for a sufficient period of time.
A general note: Microsomes from liver hold many membrane-bound enzymes, among them those of drug oxidation.

The test system of data set [2] is BLM-induced pulmonary fibrosis. In words: BLM-induced pulmonary fibrosis in mice, inhalation in therapeutic mode. Type of data set: in vivo, C57B16/J mice. Particulars: inhalation 15 mg/Kg twice daily for 7 days, from 7d post BLM. The procedure:
To explore the therapeutic potential of ATX inhibition in pulmonary fibrosis, BLM was administered to 8-10-week-old C57B16/J mice. Subsequently, the pharmaceutical compound A-1 was delivered for 7 days twice daily via inhalation (1 ml of 6.5 mg/ml for 10 mins/6 mice, corresponding to 15 mg/Kg per mouse) to conscious, gently re-strained mice, in a therapeutic mode (7d post BLM).

Data set [3] addresses T1, Mouse ATX (Mus musculus, UniProt Q9R1E6).
T1 construct: purchased Sino Biological
In words: Mode of inhibition of ATX, modified Amplex assay (Lineweaver-Burk). Type of data set: biochemical. Particulars: inhibitor 1-7.5 μM, LPC 25, 50, 100 μM. The procedure:
To determine the mode of inhibition of ATX by each inhibitor, a modified Amplex assay was employed. In brief, various concentrations of inhibitors (1, 2.5, 5 and 7.5 μM) were tested against various substrate concentrations (LPC 25, 50, 100 μM). Mouse ATX from Sino Biological was used in all mode of inhibition assays. Thereafter, the velocity (V) of the reaction was calculated and the reciprocal of velocity (1/V) was plotted against the reciprocal of substrate concentration (1/S) in Lineweaver-Burk graphs using GraphPad Software (GraphPad Software, San Diego, CA, USA).

For data set [4], the system named is choline oxidase. The data set is described as follows: 2nd reaction of the Amplex Red assay (counter-test). Type of data set: biochemical. Particulars: 2nd reaction of Amplex Red assay.
The target in data set [5] is ATX (UniProt Q9R1E6). In words: ATX inhibitory activity, Amplex Red method. Type of data set: biochemical. Particulars: LPC 16:0 50 μM, two independent experiments, read-out: IC50 against ATX. The procedure: The inhibition of ATX enzyme activity of the pharmaceutical compound A-1 was measured in vitro by applying the Amplex Red method. Briefly, 2 μL of concentration from 0.001 to 5 μmol/L of derivative […] in DMSO was incubated with 50 μL ATX 8 nM (up to a final concentration of 2 nM and 1 nM for human ATX) and 48 μL of a buffer solution (50 mM Tris-Cl of pH 8.0 and 5 mM CaCl2) for 15 minutes at 37° C. Subsequently, 50 μL of a buffer solution containing 200 μM LPC 16:0 (final concentration 50 μM) was added to the reaction mixture followed by incubation for another 30 minutes at 37° C. Finally, 50 μL of working solution containing 200 μM Amplex Red reagent and choline oxidase (0.2 U/mL) […] HRP (2 U/mL), in 50 mM Tris-HCl at pH 8.0 and 5 mM CaCl2, was added to begin the reaction. The reaction was monitored at 37° C., in a fluorescence plate reader (Tecan Infinite 200) using excitation at 530 nm and reading at 590 nm, every five minutes for 30 minutes at 37° C. The IC50 value was calculated from two independent experiments, using the sigmoid dose-response curve (PrismH software) from the equation f=y0+a/(1+exp(−(x−x0)/b) given from SigmaPlot 11.0.

Data set [6] has as its target T2, hERG (Homo sapiens, UniProt Q12809).
T2 construct: expressed in transfected cells; host or cells: CHO cells
In words: Cardiac toxicity assay, hERG inhibition in CHO cells. Type of data set: cell-based. Particulars: for cardiotoxicity (conclusion): from hERG assay. The procedure: The assay of cardiac toxicity is performed on CHO cells that express the human ether-a-go-go related gene (hERG) that encodes the inward rectifying voltage gated potassium channel in the heart, which is involved in cardiac repolarisation. Inhibition of the hERG may cause potentially fatal ventricular tachyarrhythmia.
On the technique in general: Block of hERG is tested as a sign of cardiac risk.

Data set [7] can be described thus: In vitro absorption assay, membrane permeability. Particulars: dog, MDCK, MDCKII. It counts as in vitro ADME. The procedure: The in vitro absorption assay was performed in the kidney MDCKII cell line and involves the permeability from A to B, when A and B are separated by an MDCKII cell membrane. Ideally, a compound should have a high A to B permeability, but a lower B to A permeability in order to be well-absorbed. […] The A-B permeability is much higher than the B-A permeability, thus both compounds are absorbed well in vitro.

In data set [8] the test system is BLM-induced pulmonary fibrosis. The data set is described as follows: Bleomycin (BLM)-induced pulmonary fibrosis in mice, dosing from one day before BLM. It counts as in vivo, C57Bl6/J mice. The procedure: 10-week-old male wild-type C57Bl6/J animals were administered a saline solution of bleomycin (BLM) directly to the lungs via the orotracheal route. The dose of bleomycin was 0.8 U/kg. […] All animals were monitored daily until the 14th day after the BLM injection when they were killed. […] Serum, broncheoalveolar fluid and lung tissue samples were taken at the end point of the experiment and were used to assess the severity of fibrosis for each animal.
Blood serum was collected for each animal and levels of ALT and AST transaminases, which are markers of liver damage, were assessed by using an automated biochemical analyzer.
Next, in the collected broncheoalveolar fluid, the number of cells as well as the total protein concentration were assessed as indicators of inflammation and endothelial penetration, respectively.
Additionally, in sections of lung tissue isolated from the animals, fibrosis was assessed after staining with hematoxylin and eosin.
The mRNA levels of fibrosis-related genes col1α1 (collagen 1α1) in whole lung RNA samples were also estimated.

Data set [9] deals with T3, HRP peroxidase (Armoracia rusticana, UniProt P00433).
T3 sequence (P00433 31-338 limits assumed): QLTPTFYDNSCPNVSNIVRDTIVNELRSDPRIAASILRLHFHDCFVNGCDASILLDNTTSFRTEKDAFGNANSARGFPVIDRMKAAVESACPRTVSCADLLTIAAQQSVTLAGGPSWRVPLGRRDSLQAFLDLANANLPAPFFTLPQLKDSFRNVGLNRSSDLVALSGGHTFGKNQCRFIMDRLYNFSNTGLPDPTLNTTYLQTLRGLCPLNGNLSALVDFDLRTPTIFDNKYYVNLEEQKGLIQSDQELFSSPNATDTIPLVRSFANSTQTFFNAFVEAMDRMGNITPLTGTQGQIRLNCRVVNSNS
In words: 3rd reaction of the Amplex Red assay (counter-test). It counts as biochemical. Particulars: 3rd reaction of Amplex Red assay.

Where [10] appears, read: 30 mg/kg, 2 doses daily, vs B+V group.

T2 sequence (Q12809 whole entry): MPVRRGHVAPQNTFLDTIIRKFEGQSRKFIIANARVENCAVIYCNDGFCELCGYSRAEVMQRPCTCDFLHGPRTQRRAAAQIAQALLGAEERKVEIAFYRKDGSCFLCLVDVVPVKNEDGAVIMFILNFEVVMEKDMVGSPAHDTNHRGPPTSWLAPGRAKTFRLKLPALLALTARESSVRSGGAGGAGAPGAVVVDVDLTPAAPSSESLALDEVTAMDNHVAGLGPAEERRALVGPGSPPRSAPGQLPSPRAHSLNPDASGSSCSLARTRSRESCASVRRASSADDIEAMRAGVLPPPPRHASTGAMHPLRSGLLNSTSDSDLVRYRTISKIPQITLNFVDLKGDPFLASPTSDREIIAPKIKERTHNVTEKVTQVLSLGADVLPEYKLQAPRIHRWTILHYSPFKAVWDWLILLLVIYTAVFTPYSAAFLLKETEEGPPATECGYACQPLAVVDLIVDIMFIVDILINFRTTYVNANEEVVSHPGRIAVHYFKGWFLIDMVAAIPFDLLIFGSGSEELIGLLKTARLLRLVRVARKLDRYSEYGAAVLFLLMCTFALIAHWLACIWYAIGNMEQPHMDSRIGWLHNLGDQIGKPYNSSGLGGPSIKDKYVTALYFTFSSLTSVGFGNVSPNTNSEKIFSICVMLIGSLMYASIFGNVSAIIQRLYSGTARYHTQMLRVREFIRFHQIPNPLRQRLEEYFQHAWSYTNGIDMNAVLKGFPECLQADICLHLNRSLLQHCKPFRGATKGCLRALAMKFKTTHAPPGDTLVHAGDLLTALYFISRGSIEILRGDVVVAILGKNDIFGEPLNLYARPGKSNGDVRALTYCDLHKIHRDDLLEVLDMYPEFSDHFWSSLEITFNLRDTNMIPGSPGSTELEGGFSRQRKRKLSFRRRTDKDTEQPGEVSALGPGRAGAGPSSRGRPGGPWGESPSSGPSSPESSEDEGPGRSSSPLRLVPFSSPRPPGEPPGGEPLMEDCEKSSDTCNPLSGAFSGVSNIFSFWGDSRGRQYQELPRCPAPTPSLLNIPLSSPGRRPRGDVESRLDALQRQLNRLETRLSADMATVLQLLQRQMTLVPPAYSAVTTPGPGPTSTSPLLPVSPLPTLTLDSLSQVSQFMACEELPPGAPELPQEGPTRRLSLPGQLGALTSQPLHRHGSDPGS

As a reminder, the half-life is the time in which the quantity being followed falls by half. Higher therefore signals slow loss. Usually IC50 stands for the midpoint of a concentration-inhibition curve. A word on the Papp A→B: it is how fast a substance crosses the layer from the apical side. Read a high Papp A→B as ready permeation. One may read the Papp B→A as how fast a substance crosses the layer from the basolateral side. For the compound `O=C1NC(=O)C(Cc2ccc(OCCN3CCN(C(=O)OCc4cc(Cl)cc(Cl)c4)CC3)cc2)S1` (centres unmarked) [A-1, 3,5-dichlorobenzyl4-(2-(4-((2,4-dioxothiazolidin-5-yl)methyl)phenoxy)ethyl)piperazine-1-carboxylate], the microsomal CLint in data set [1] (liver microsomes, read-out: Clint (intrinsic clearance)) is 329 µL/min/mg. The same compound returned a half-life in data set [1] (microsomes) of 21 min. In data set [2], the “inflammatory cells in BALF” value is on record as “significantly reduced”; the “lung architecture, H&E staining” value is recorded as “prevented BLM-induced architectural distortion”; the “lung respiratory functions (FlexiVent)” value is given as “relative protection”; the “vascular leak and pulmonary edema (total protein concentration in BALF)” value is given as “noteworthy decrease”. Moreover, in data set [3], the “mode of inhibition against ATX” value is recorded as “non-competitive inhibition”. Further, the “inhibition of choline oxidase” value in [4] is on record as “no inhibition; also recorded: Neither compound showed any detectable inhibition”. Also, the IC50 in data set [5] amounted to 190 nM. Further, in data set [6], the IC50 turned out to be 12000 nM and the “cardiotoxicity (conclusion)” value is reported as “not cardiotoxic; also recorded: does not exhibit cardiotoxicity”. In data set [7] (A to B), this compound displayed a Papp A→B of 3.7 ×10⁻⁶ cm/s. Moreover, in [7] (B to A), the Papp B→A came to 0.8 ×10⁻⁶ cm/s. Besides, the “side effects during the model” value in data set [8] (30 mg/kg, 2 doses daily, 14 days post BLM, vs untreated group) is listed as “did not suffer any unwanted side effects”. In data set [8] (setting [10]), the “fibrotic areas in lung sections, hematoxylin and eosin” value is “less fibrotic areas”; the “number of cells in bronchoalveolar fluid” value is on record as “reduced number of cells”; the “total protein concentration in bronchoalveolar fluid” value is recorded as “lower levels”. Also, the “col1α1 mRNA levels in whole lung” value in data set [8] (30 mg/kg, 2 doses daily, vs B+V, restored to S+V level) is on record as “reduces the mRNA levels (expression) of col1α1 statistically significantly”. In [8] (30 mg/kg, 2 doses daily, normal range 28-132 U/L), the “serum ALT level” value is on record as “normal”. The “serum AST level” value in data set [8] (30 mg/kg, 2 doses daily, normal range 59-247 U/L) was “normal”. In addition, in [8] (from ALT and AST levels), the “liver toxicity / hepatotoxicity (conclusion)” value was “does not cause any adverse toxicity to the liver; also recorded: does not exhibit hepatotoxicity”. Moreover, the “inhibition of HRP peroxidase” value in [9] is “no inhibition; also recorded: Neither compound showed any detectable inhibition”.

Broadly, the inhibition is the share of the control response that was lost under treatment. High values mean strong suppression, low ones little suppression. On to `O=C1NC(=O)C(Cc2ccc(OCCC3CCN(C(=O)OCc4cc(Cl)cc(Cl)c4)CC3)cc2)S1` (centres unmarked) [A-3, 3,5-dichlorobenzyl 4-(2-(4-((2,4-dioxothiazolidin-5-yl)methyl)phenoxy)ethyl)piperidine-1-carboxylate], for which the “mode of inhibition against ATX” value in data set [3] is given as “non-competitive inhibition”. The “inhibition of choline oxidase” value in [4] is recorded as “no inhibition; also recorded: Neither compound showed any detectable inhibition”. For the same compound, in [5], the IC50 was 30 nM. Besides, the “cardiotoxicity (conclusion)” value in data set [6] is given as “not cardiotoxic; also recorded: does not exhibit cardiotoxicity”. For the same compound, in data set [6] (human, at 25 μM), testing at 25 µM gave an inhibition of 11%. Besides, in data set [9], the “inhibition of HRP peroxidase” value is “no inhibition; also recorded: Neither compound showed any detectable inhibition”.

Consider `Cc1c(C)c2c(c(C)c1O)CCC(C)(COc1ccc(CC3SC(=O)NC3=O)cc1)O2` (centres unmarked) [TGL, troglitazone, reference compound], for which the IC50 in data set [5] was 610 nM.
